Data on 15 compounds can be found in patent US11584714B2 (priority 2018, dated 2023).

What all share (assay type): biochemical
One experiment has as its target mMASP-2 (Mus musculus (Mouse), UniProt Q91WP0). Nature of the experiment: Enzymatic inhibition of mMASP-2. The note with it: read-out: mMASP-2 Ki.
In a further experiment the target is MASP-2 (CCP1-CCP2-SP) (Homo sapiens (Human), UniProt O00187). Nature of the experiment: biochemical. The note with it: for MASP-2 vs. thrombin selectivity: selectivity for MASP-2 inhibition versus thrombin.
The next experiment concerns the target human α-thrombin (Homo sapiens (Human), UniProt P00734). Nature of the experiment: Enzymatic assay for thrombin (Boc-VPR-AMC substrate). The settings on record: for pKi: read-out: Thrombin Ki; for Ki: Thrombin Ki (μM).

pKi: −log10 of the molar value. Where a name gives a salt, the structure may show the parent alone. Read-outs that look alike come from different tables or passages of the source.

As a reminder, the pKi is the negative decadic logarithm of the Ki, by convention in mol/L. A word on the Ki: it is a measure of affinity in units of concentration, obtained from inhibition or displacement. The low end stands for tighter binding, the high end for weaker binding.

Chain of mMASP-2 (Q91WP0 20-685): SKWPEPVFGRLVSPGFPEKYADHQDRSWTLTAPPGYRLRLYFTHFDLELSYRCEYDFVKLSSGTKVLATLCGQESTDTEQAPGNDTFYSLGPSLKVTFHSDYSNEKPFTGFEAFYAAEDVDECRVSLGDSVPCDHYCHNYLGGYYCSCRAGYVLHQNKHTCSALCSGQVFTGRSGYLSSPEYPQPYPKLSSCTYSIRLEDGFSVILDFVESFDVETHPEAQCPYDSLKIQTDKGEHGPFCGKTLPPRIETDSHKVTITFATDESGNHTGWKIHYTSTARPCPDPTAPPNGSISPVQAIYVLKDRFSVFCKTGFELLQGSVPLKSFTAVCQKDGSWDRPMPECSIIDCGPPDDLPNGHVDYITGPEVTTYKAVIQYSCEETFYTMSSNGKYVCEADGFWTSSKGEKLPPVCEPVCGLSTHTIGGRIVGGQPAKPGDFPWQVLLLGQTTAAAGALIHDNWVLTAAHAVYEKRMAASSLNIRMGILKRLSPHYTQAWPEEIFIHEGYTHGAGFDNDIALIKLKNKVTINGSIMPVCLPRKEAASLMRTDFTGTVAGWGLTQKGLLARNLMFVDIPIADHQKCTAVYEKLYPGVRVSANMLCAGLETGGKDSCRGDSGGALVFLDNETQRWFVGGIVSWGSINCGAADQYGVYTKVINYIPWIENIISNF
Chain of MASP-2 (CCP1-CCP2-SP) (O00187 445-686): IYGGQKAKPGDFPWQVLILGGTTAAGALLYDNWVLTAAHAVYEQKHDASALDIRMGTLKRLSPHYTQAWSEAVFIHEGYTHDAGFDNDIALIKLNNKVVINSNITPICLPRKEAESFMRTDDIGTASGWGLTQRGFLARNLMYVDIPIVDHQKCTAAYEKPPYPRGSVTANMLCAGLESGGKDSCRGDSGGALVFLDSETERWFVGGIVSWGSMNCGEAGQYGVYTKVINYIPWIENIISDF

In the case of `C[C@H](NC(=O)[C@H]1C[C@H](c2ccccc2)CN1)C(=O)NCc1ccc2nccn2c1` [compound 1434, (2R,4R)—N—((S)-1-((Imidazo[1,2-a]pyridin-6-ylmethyl)amino)-1-oxopropan-2-yl)-4-phenylpyrrolidine-2-carboxamide Dihydrochloride], the values for the pKi at mMASP-2, at MASP-2 (CCP1-CCP2-SP) and on human α-thrombin were 4.60 to 5.00, 4.60 to 5.00 and under 4.60, respectively.

With `Cc1cc(Br)cc(CNC(=O)[C@H](C)NC(=O)[C@H]2C[C@H](Cc3ccccc3)CN2)c1-n1cnnn1` [compound 1436, (2R,4S)-4-Benzyl-N-((S)-1-((5-bromo-3-methyl-2-(1H-tetrazol-1-yl)benzyl)amino)-1-oxopropan-2-yl)pyrrolidine-2-carboxamide Trifluoroacetate], the pKi at mMASP-2 is under 4.60. For the same compound, at MASP-2 (CCP1-CCP2-SP), the pKi is 5.60 to 6.30 and the “MASP-2 vs. thrombin selectivity” value is “** (≥5.0 to <25-fold)”. Moreover, the Ki on human α-thrombin fell in the range of 10 to 25 µM.

For `Cc1nc(N)ccc1CNC(=O)[C@H](C)NC(=O)[C@H]1C[C@@H](c2ccccc2)CCN1CCCC(=O)O` [compound 1439, 4-((2R,4S)-2-(((S)-1-(((6-Amino-2-methylpyridin-3-yl)methyl)amino)-1-oxopropan-2-yl)carbamoyl)-4-phenylpiperidin-1-yl)butanoic acid Trifluoroacetate salt], the results for the negative logarithm of the Ki (pKi) at mMASP-2, on MASP-2 (CCP1-CCP2-SP) (read-out: MASP-2 Ki) and at human α-thrombin were 5.00 to 5.60, over 6.30 and under 4.60, respectively.

For the compound `CCOC(=O)CCCN1CC[C@H](c2ccccc2)C[C@@H]1C(=O)N[C@@H](C)C(=O)NCc1ccc(N)nc1C` [compound 1440, Ethyl 4-((2R,4S)-2-(((S)-1-(((6-amino-2-methylpyridin-3-yl)methyl)amino)-1-oxopropan-2-yl)carbamoyl)-4-phenylpiperidin-1-yl)butanoate], the pKi at mMASP-2 was 5.00 to 5.60; on MASP-2 (CCP1-CCP2-SP) (read-out: MASP-2 Ki) it was over 6.30; at human α-thrombin it was under 4.60.

As to `C[C@H](NC(=O)[C@H]1C[C@H](c2ccccc2)CN1)C(=O)NCc1cnc2c(c1)c(Cl)cn2C` [compound 1442, (2R,4R)—N—((S)-1-(((3-Chloro-1-methyl-1H-pyrrolo[2,3-b]pyridin-5-yl)methyl)amino)-1-oxopropan-2-yl)-4-phenylpyrrolidine-2-carboxamide Dihydrochloride], the pKi at mMASP-2 was over 6.30; on MASP-2 (CCP1-CCP2-SP) (read-out: MASP-2 Ki) it was over 6.30; at human α-thrombin, under 4.60.

As for `C[C@H](NC(=O)[C@H]1C[C@H](Cc2ccccc2)CN1)C(=O)NCc1cc(Cl)cc(Cl)c1O` [compound 1448, (2R,4S)-4-benzyl-N-((S)-1-((3,5-dichloro-2-hydroxybenzyl)amino)-1-oxopropan-2-yl)pyrrolidine-2-carboxamide, hydrochloride], the negative-log Ki (pKi) was 5.00 to 5.60 at mMASP-2, over 6.30 at MASP-2 (CCP1-CCP2-SP) (read-out: MASP-2 Ki) and under 4.60 at human α-thrombin. Also, the “MASP-2 vs. thrombin selectivity” value on MASP-2 (CCP1-CCP2-SP) is “**** (≥100-fold)”.

For the compound `Cc1nc(N)ccc1CNC(=O)[C@H](C)NC(=O)[C@H]1C[C@H](Cc2ccc(OC(F)(F)F)c(Cl)c2)CN1` [compound 1455, (2R,4S)—N—((S)-1-(((6-Amino-2-methylpyridin-3-yl)methyl)amino)-1-oxopropan-2-yl)-4-(3-chloro-4-(trifluoromethoxy)benzyl)pyrrolidine-2-carboxamide Di-trifluoroacetate salt], the figures for the pKi at mMASP-2, on MASP-2 (CCP1-CCP2-SP) (read-out: MASP-2 Ki) and on human α-thrombin were over 6.30, over 6.30 and under 4.60, respectively. For the same compound, the “MASP-2 vs. thrombin selectivity” value at MASP-2 (CCP1-CCP2-SP) was “**** (≥100-fold)”.

For `C[C@H](NC(=O)[C@H]1C[C@H](c2ccccc2)CN1)C(=O)NCc1cnc2cccc(Cl)c2c1` [compound 1457, (2R,4R)—N—((S)-1-(((5-chloroquinolin-3-yl)methyl)amino)-1-oxopropan-2-yl)-4-phenylpyrrolidine-2-carboxamide], the pKi at mMASP-2 is 5.00 to 5.60; at MASP-2 (CCP1-CCP2-SP), 4.60 to 5.00; on human α-thrombin, under 4.60.

Regarding `Cc1nc(N)ccc1CNC(=O)[C@H](C)NC(=O)[C@H]1C[C@H](Cc2cc3ccccc3s2)CN1` [compound 1458, (2R,4R)—N—((S)-1-(((6-Amino-2-methylpyridin-3-yl)methyl)amino)-1-oxopropan-2-yl)-4-(benzo[b]thiophen-2-ylmethyl)pyrrolidine-2-carboxamide Di-trifluoroacetate salt], the pKi on mMASP-2 is over 6.30; at MASP-2 (CCP1-CCP2-SP) (read-out: MASP-2 Ki), over 6.30; at human α-thrombin it was under 4.60. The “MASP-2 vs. thrombin selectivity” value at MASP-2 (CCP1-CCP2-SP) is “**** (≥100-fold)”.

As to `Cc1nc(N)ccc1CNC(=O)[C@H](C)NC(=O)[C@H]1C[C@H](Cc2ccc(F)c(Cl)c2)CN1` [compound 1459, (2R,4S)—N—((S)-1-(((6-Amino-2-methylpyridin-3-yl)methyl)amino)-1-oxopropan-2-yl)-4-(3-chloro-4-fluorobenzyl)pyrrolidine-2-carboxamide Di-trifluoroacetate salt], the pKi at mMASP-2 and on MASP-2 (CCP1-CCP2-SP) (read-out: MASP-2 Ki) was over 6.30 throughout. For the same compound, the “MASP-2 vs. thrombin selectivity” value at MASP-2 (CCP1-CCP2-SP) is reported as “**** (≥100-fold)”. Moreover, at human α-thrombin, the Ki was in the range of 2.5 to 10 µM.

Consider `Cc1nc(N)ccc1CNC(=O)[C@H](C)NC(=O)[C@H]1C[C@H](Cc2nc3cc(Cl)ccc3s2)CN1` [compound 1460, (2R,4R)—N—((S)-1-(((6-Amino-2-methylpyridin-3-yl)methyl)amino)-1-oxopropan-2-yl)-4-((5-chlorobenzo[d]thiazol-2-yl)methyl)pyrrolidine-2-carboxamide Di-trifluoroacetate salt], for which the pKi at mMASP-2 is over 6.30; at MASP-2 (CCP1-CCP2-SP) (read-out: MASP-2 Ki) it was over 6.30; on human α-thrombin, under 4.60. Besides, the “MASP-2 vs. thrombin selectivity” value on MASP-2 (CCP1-CCP2-SP) is recorded as “**** (≥100-fold)”.

For `Cc1nc(N)ccc1CNC(=O)[C@H](C)NC(=O)[C@H]1C[C@H](Cc2csc(Cl)c2)CN1` [compound 1461, (2R,4S)—N—((S)-1-(((6-Amino-2-methylpyridin-3-yl)methyl)amino)-1-oxopropan-2-yl)-4-((5-chlorothiophen-3-yl)methyl)pyrrolidine-2-carboxamide Dihydrochloride], the pKi at mMASP-2 and on MASP-2 (CCP1-CCP2-SP) (read-out: MASP-2 Ki) was over 6.30 throughout. Further, on MASP-2 (CCP1-CCP2-SP), the “MASP-2 vs. thrombin selectivity” value is listed as “**** (≥100-fold)”. Further, the Ki on human α-thrombin was in the range of 0.5 to 2.5 µM.

Consider `C[C@H](NC(=O)[C@H]1C[C@H](c2ccccc2)CN1)C(=O)NCc1cc(Br)cc2cn[nH]c12` [compound 1462, (2R,4R)—N—((S)-1-(((5-bromo-1H-indazol-7-yl)methyl)amino)-1-oxopropan-2-yl)-4-phenylpyrrolidine-2-carboxamide], for which, at mMASP-2, the negative logarithm of the Ki (pKi) is 5.00 to 5.60. At MASP-2 (CCP1-CCP2-SP), the negative logarithm of the Ki (pKi) was 5.60 to 6.30 and the “MASP-2 vs. thrombin selectivity” value is reported as “** (≥5.0 to <25-fold)”. At human α-thrombin, this compound returned an inhibitory constant (Ki) of 10 to 25 µM.

`C[C@H](NC(=O)[C@H]1C[C@H](c2ccccc2)CN1)C(=O)NCc1cc2cnccc2[nH]1` [compound 1463, (2R,4R)—N—((S)-1-(((1H-Pyrrolo[3,2-c]pyridin-2-yl)methyl)amino)-1-oxopropan-2-yl)-4-phenylpyrrolidine-2-carboxamide Di-trifluoroacetate salt]: the negative-log Ki (pKi) on mMASP-2 is over 6.30; at MASP-2 (CCP1-CCP2-SP) (read-out: MASP-2 Ki), over 6.30; on human α-thrombin, under 4.60.

With `CCN1C[C@@H](Cc2ccc(Cl)c(Br)c2)C[C@@H]1C(=O)N[C@@H](C)C(=O)NCc1ccc(N)nc1C` [compound 1464, (2R,4S)—N—((S)-1-(((6-Amino-2-methylpyridin-3-yl)methyl)amino)-1-oxopropan-2-yl)-4-(3-bromo-4-chlorobenzyl)-1-ethylpyrrolidine-2-carboxamide], the results for the negative-log Ki (pKi) on mMASP-2, on MASP-2 (CCP1-CCP2-SP) (read-out: MASP-2 Ki) and at human α-thrombin were over 6.30, over 6.30 and under 4.60, respectively.
